This is an account of results in ChEMBL document CHEMBL1126543, “1,24S-dihydroxy-26,27-cyclo-22-yne-vitamin D3: the side chain triple bond analogue of MC 903 (calcipotriol)” (Bioorg Med Chem Lett, 1993).

Active and inactive are the calls of the source. The rule behind the calls is not given here.

For assay [1], the system named is Rattus norvegicus. Kind of assay: Tested for the hypercalciuria effect at 0.5 ug/kg by 1,25-(OH)2D3 for 7 days up to 100 ug/kg; compound produced marked hypercalciuria at 0.5 ug/kg. In kind it is functional, organism-based.
The subject of assay [2] is Rattus norvegicus. The assay is described as follows: Tested for the effect on calcium homeostasis in rats dosed up to 100 ug/kg daily for 7 days; Compound was found to show no effect. In kind it is functional, organism-based.

On to `C=C1/C(=C\C=C2/CCC[C@]3(C)[C@@H]([C@H](C)C#C[C@@H](O)C4CC4)CC[C@@H]23)C[C@@H](O)C[C@@H]1O`, for which the Activity result with Rattus norvegicus [1] is on record as “Marked hypercalciuria at 0.5 ug/kg”. For the same molecule, the outcome in the assay on Rattus norvegicus [2] was inactive.
